According to PMC7026418, “The kinase polypharmacology landscape of clinical PARP inhibitors” (Scientific Reports, 2020):
Like-named read-outs stand apart in the source and are kept apart here. One block for each compound: values may come before it.

Experiments:
Assay in all cases: biochemical
Parameters in all cases: DiscoveRx KINOMEscan active site-directed competition binding; percent of control kinase bound to immobilised ligand
PIK3C2G = target: T1, PIK3C2G (Homo sapiens, UniProt O75747)
T1 sequence (O75747 1-1486): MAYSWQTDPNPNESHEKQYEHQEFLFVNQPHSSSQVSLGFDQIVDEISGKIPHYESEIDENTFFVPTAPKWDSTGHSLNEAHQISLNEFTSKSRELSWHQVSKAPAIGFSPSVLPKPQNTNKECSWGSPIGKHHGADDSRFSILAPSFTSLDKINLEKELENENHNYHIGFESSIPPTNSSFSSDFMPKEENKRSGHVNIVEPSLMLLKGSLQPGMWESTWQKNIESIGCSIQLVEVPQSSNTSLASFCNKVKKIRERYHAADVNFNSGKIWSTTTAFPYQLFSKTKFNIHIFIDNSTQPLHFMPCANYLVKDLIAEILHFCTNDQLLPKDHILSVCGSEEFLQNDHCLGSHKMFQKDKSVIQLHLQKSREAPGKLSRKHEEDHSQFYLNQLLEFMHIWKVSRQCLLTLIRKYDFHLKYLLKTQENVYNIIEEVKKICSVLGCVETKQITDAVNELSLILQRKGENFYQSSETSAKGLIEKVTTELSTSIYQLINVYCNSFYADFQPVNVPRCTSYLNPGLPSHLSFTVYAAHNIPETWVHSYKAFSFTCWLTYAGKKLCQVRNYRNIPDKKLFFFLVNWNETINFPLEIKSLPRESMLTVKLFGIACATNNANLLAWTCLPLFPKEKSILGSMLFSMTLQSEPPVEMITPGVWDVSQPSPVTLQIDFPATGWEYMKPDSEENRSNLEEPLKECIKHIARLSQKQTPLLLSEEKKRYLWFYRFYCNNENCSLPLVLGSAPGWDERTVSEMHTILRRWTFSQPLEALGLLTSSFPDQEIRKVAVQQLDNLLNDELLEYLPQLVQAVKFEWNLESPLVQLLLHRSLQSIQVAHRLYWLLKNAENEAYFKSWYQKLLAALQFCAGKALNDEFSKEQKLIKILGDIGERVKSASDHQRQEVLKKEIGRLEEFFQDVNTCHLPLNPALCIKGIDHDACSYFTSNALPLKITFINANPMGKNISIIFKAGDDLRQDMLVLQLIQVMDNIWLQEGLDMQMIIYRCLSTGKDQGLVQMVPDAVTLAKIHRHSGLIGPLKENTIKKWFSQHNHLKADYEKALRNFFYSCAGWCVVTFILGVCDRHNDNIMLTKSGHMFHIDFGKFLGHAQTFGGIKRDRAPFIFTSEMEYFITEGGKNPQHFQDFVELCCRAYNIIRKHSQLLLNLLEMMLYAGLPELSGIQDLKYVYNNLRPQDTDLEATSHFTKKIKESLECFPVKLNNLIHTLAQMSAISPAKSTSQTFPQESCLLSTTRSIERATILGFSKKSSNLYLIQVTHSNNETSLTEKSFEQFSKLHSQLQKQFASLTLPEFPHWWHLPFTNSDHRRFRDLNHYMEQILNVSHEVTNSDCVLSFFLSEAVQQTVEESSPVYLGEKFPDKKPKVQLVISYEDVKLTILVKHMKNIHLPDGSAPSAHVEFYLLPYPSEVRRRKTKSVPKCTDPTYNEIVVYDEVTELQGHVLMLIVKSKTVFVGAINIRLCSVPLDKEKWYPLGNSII

ARK5 = target: T2, ARK5 (Homo sapiens, UniProt O60285)
T2 construct: gene NUAK1
T2 sequence (O60285 1-661): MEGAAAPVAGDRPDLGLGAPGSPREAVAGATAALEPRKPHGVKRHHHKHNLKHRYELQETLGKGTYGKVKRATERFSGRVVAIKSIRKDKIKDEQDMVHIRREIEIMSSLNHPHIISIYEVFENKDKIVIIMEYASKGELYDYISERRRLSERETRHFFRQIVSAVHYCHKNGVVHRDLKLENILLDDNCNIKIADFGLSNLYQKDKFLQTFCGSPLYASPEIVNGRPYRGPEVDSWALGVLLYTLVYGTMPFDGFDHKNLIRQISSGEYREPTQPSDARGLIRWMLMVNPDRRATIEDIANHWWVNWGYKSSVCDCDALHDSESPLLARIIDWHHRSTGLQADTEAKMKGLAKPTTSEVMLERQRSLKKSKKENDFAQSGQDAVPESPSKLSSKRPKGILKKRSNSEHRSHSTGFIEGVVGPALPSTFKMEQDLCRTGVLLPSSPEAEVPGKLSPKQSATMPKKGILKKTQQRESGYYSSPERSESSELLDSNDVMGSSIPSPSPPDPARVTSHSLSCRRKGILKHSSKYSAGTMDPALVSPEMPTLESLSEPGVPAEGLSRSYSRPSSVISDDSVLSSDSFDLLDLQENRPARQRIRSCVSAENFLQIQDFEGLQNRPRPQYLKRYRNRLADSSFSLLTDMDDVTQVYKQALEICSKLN

GRK2 = target: T3, GRK2 (Homo sapiens, UniProt P25098)
T3 sequence (P25098 1-689): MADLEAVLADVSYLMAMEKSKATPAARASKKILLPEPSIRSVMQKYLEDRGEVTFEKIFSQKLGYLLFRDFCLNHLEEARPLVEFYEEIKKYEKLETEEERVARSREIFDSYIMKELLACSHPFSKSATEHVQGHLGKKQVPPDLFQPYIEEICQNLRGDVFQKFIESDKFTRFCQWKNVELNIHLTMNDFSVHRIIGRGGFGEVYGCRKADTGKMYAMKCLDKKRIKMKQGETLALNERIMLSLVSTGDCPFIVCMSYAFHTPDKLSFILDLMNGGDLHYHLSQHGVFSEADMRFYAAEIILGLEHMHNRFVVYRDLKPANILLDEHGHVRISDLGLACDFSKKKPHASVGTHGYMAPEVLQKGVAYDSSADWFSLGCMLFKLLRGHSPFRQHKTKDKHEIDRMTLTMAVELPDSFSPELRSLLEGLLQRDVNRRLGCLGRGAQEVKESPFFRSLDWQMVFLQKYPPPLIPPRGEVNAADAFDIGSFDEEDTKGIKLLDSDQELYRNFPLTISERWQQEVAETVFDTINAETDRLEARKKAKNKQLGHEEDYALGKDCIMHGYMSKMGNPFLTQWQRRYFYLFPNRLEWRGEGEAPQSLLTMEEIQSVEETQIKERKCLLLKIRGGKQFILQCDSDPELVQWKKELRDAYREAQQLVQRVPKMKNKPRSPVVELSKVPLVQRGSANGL

[1] = read-out: Olaparib / %Ctrl @ 10000nM
[2] = read-out: Talazoparib (BMN 673) / %Ctrl @ 10000nM
[3] = read-out: Rucaparib / %Ctrl @ 10000nM, binding competition, % of control
[4] = read-out: Niraparib (MK-4827) / %Ctrl @ 10000nM

percent of control binding at 10 µM (PIK3C2G; [1]): 82% | percent of control binding at 10 µM (ARK5; [1]): 99% | percent of control binding at 10 µM (GRK2; [1]): 79%
SMILES: O=C(c1cc(Cc2n[nH]c(=O)c3ccccc23)ccc1F)N1CCN(C(=O)C2CC2)CC1 [Olaparib]

percent of control binding at 10 µM (PIK3C2G; [2]): 81% | percent of control binding at 10 µM (ARK5; [2]): 100% | percent of control binding at 10 µM (GRK2; [2]): 100%
SMILES: Cn1ncnc1[C@H]1c2n[nH]c(=O)c3cc(F)cc(c23)N[C@@H]1c1ccc(F)cc1 [Talazoparib]

percent of control binding at 10 µM (PIK3C2G; [3]): 73% | percent of control binding at 10 µM (ARK5; [3]): 100% | percent of control binding at 10 µM (GRK2; [3]): 70%
SMILES: CNCc1ccc(-c2[nH]c3cc(F)cc4c3c2CCNC4=O)cc1 [Rucaparib]

SMILES: NC(=O)c1cccc2cn(-c3ccc([C@@H]4CCCNC4)cc3)nc12 [Niraparib]
percent of control binding at 10 µM (PIK3C2G; [4]): 79% | percent of control binding at 10 µM (ARK5; [4]): 56% | percent of control binding at 10 µM (GRK2; [4]): 97%
